Read-outs that look alike come from different tables or passages of the source.
Columns and labels:
Kir4.1 = target: T1, Kir4.1 (Homo sapiens, UniProt P78508); assay: Whole-cell patch clamp, Kir4.1 currents in transfected CHO-K1 cells; format: cell-based; settings: for inhibition at 0.5 µM: CHO-K1, 0.5 μM; for inhibition at 1 µM: CHO-K1, 1 μM; for inhibition at 10 µM: CHO-K1, 10 μM; for IC50: whole-cell patch clamp
T1 construct: host or cells: CHO-K1
T1 sequence (P78508 1-379): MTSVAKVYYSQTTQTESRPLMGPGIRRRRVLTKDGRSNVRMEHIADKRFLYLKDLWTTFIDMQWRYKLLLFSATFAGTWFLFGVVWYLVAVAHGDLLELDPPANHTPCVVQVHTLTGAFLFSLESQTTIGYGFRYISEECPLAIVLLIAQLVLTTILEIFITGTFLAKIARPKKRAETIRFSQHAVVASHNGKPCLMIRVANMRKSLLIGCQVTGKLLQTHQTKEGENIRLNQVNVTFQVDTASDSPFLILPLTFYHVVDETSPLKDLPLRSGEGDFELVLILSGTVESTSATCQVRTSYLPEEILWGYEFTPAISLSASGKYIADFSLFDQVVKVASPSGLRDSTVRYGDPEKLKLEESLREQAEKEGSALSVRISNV
Experimental: Plasmids encoding WT human potassium channels Kir1.1, Kir2.1, Kir2.2, Kir4.1, and Kir4.2 were obtained from the Beijing Genomics Institute. All point mutations were constructed using the QuickChange II Site‐Directed Mutagenesis Kit (Stratagene) and subsequently verified by sequencing.
CHO‐K1 cells were maintained in DMEM/F12 growth medium containing 10% fetal bovine serum. Plasmids encoding the target genes (3600 ng) and enhanced green fluorescent protein (400 ng) were cotransfected into cells using Lipofectamine 2000 (Invitrogen) in accordance with the manufacturer's instructions. Cells were seeded onto poly‐d‐lysine (PDL)‐coated glass coverslips 1 h prior to electrophysiological recordings. All cells were cultured under standard conditions of 5% CO2 at 37 °C.
Whole‐cell patch‐clamp recordings were obtained either in transiently transfected CHO‐K1 cells or in primary cultured astrocytes at room temperature using standard patch‐clamp techniques with an Axopatch‐700B amplifier (Axon Instruments). The signals were filtered at 2 kHz and sampled at 20 kHz using the Digidata 1440A interface (Axon Instruments). The resistance of borosilicate glass pipettes was typically 2–4 MΩ when filled with the internal solution. Drug application was facilitated using a BPS perfusion system (ALA Scientific Instruments). Macroscopic currents generated by expressed potassium channels were recorded under the voltage‐clamp conditions with an internal pipette solution composed of (in mM): 140 KCl, 5 NaCl, 1 CaCl2, 1 MgCl2, 10 HEPES, and 10 EGTA, pH 7.2 adjusted with KOH. The external solution contained (in mM): 140 NaCl, 5 KCl, 2 CaCl2, 1 MgCl2, 10 glucose, and 10 HEPES, pH 7.4 adjusted with NaOH. Currents were elicited with a hyperpolarized voltage at −120 mV from the holding potential of −80 mV, followed by a ramp voltage depolarizing to +50 mV. Astrocytic resting membrane potentials were recorded under current‐clamp conditions (I = 0 pA) using standard internal and external solutions, determined immediately after achieving whole‐cell mode.

[1] = system: MDA-MB-468 breast cancer cells; assay: Cytotoxicity test (CCK-8); format: cell-based
Experimental: Cytotoxicity of all the tested compounds was determined using the cell counting kit‐8 (CCK‐8) assay kit (Beyotime, Shanghai, China). Briefly, MDA‐MB‐468 was cultured in L15 medium and plated in 96‐well plates at a density of 12,000 cells per well for 24 h at 37 °C in a 5% CO2 incubator. The tested compounds were dissolved in DMSO and diluted with culture medium (DMSO final concentration < 0.4%). Then the cells were treated with compounds (0.41, 1.23, 3.70, 11.11, 33.33, 100.00 µM) for 48 h. After treatments, removal of the supernatant liquor, 100 µL of new media diluted CCK‐8 solution (10% CCK‐8) was added into each well and incubated at 37 °C for 2 h. The absorbance of the mixture was directly measured at 450 nm. The results are presented as a percentage of the control.

[2] = +50 mV, read-out: Kir4.1 Inhibition ± SD (%) at 0.5 μM, +50 mV
[3] = -120 mV, read-out: Kir4.1 Inhibition ± SD (%) at 0.5 μM, -120 mV
[4] = +50 mV, read-out: Kir4.1 Inhibition ± SD (%) at 1 μM, +50 mV
[5] = -120 mV, read-out: Kir4.1 Inhibition ± SD (%) at 1 μM, -120 mV
[6] = +50 mV, read-out: Kir4.1 Inhibition ± SD (%) at 10 μM, +50 mV
[7] = -120 mV, read-out: Kir4.1 Inhibition ± SD (%) at 10 μM, -120 mV
[8] = Homo sapiens, MDA-MB-468, MDA-MB-468 breast cancer cells, read-out: IC50 ± SD (μM) for MDA-MB-468 Inhibition

| Structure (SMILES) | inhibition at 1 µM (Kir4.1; [4]) | inhibition at 1 µM (Kir4.1; [5]) | inhibition at 10 µM (Kir4.1; [6]) | inhibition at 10 µM (Kir4.1; [7]) | IC50 [1, 8] | other results |
| --- | --- | --- | --- | --- | --- | --- |
| CCn1c2ccccc2c2cc(Nc3ccnc(NCCCN4CCOCC4)n3)ccc21 [EHop-016, N ^4‐(9‐ethyl‐9H‐carbazole‐3‐yl)‐N ^2‐(3‐morpholinopropyl)pyrimidine‐2,4‐diamine, reference compound] | 76 ± 1.81% | 64.6 ± 5.93% | 96.6 ± 1.38% | 97 ± 1.86% | – | inhibition at 0.5 µM (Kir4.1; [2]): 17.2 ± 2.53%; inhibition at 0.5 µM (Kir4.1; [3]): 19 ± 3.75%; IC50 (Kir4.1; CHO cells transiently expressing Kir4.1, +50 mV, read-out: IC50 for Kir4.1 inhibition (+50 mV, outward currents)): 0.61 µM; IC50 (Kir4.1; CHO cells transiently expressing Kir4.1, −120 mV, read-out: IC50 for Kir4.1 inhibition (−120 mV, inward currents)): 0.74 µM; IC50 ([1]; Homo sapiens, MDA-MB-468, 48 h, CCK-8, 48 h, read-out: IC50 against MDA-MB-468 breast cancer cells): 5.98 ± 0.67 µM |
| Nc1ccnc(NCCCN2CCOCC2)n1 [JX3201, N^2-(3-morpholinopropyl)pyrimidine-2,4-diamine] | – | – | 3.02 ± 1.37% | 4.04 ± 7.66% | > 50 µM | – |
| c1cc(NC2CCCCC2)nc(NCCCN2CCOCC2)n1 [JX3202, N^4-cyclohexyl-N^2-(3-morpholinopropyl)pyrimidine-2,4-diamine] | – | – | 6.08 ± 3.06% | 2.79 ± 2.22% | 21.1 ± 2.08 µM | – |
| c1cc(NC23CC4CC(CC(C4)C2)C3)nc(NCCCN2CCOCC2)n1 [JX3203, N^4-((1s,3s)-adamantan-1-yl)-N^2-(3-morpholinopropyl)pyrimidine-2,4-diamine] | – | – | – | – | – | Kir4.1 Inhibition ± SD (%) at 10 μM, +50 mV (Kir4.1; 10 μM, +50 mV): 64.79 ± 0.85%; Kir4.1 Inhibition ± SD (%) at 10 μM, -120 mV (Kir4.1; 10 μM, -120 mV): 31.27 ± 3.29%; IC50 ([1]; MDA-MB-468 breast cancer cells, read-out: IC50 ± SD (μM) for MDA-MB-468 Inhibition): 22.2 ± 5.05 µM |
| c1ccc(Nc2ccnc(NCCCN3CCOCC3)n2)cc1 [JX3204, N^2-(3-morpholinopropyl)-N^4-phenylpyrimidine-2,4-diamine] | – | – | 5.73 ± 2.33% | 0.47 ± 2.29% | > 50 µM | – |
| c1ccc2cc(Nc3ccnc(NCCCN4CCOCC4)n3)ccc2c1 [JX3205, N^2-(3-morpholinopropyl)-N^4-(naphthalen-2-yl)pyrimidine-2,4-diamine] | – | – | 36.5 ± 10.2% | 8.88 ± 10.2% | 16.9 ± 1.65 µM | – |
| c1cc(Nc2ccc3[nH]ccc3c2)nc(NCCCN2CCOCC2)n1 [JX3206, N^4-(1H-indol-5-yl)-N^2-(3-morpholinopropyl)pyrimidine-2,4-diamine] | – | – | 38.4 ± 5.37% | 25.9 ± 1.96% | > 50 µM | – |
| O=c1c2ccccc2[nH]c2ccc(Nc3ccnc(NCCCN4CCOCC4)n3)cc12 [JX3208, 2-((2-((3-morpholinopropyl)amino)pyrimidin-4-yl)amino)acridin-9(10H)-one] | – | – | 1.43 ± 3.1% | 2.21 ± 9.84% | 16.8 ± 0.51 µM | – |
| c1ccc2nc3ccc(Nc4ccnc(NCCCN5CCOCC5)n4)cc3cc2c1 [JX3209, N^4-(acridin-2-yl)-N^2-(3-morpholinopropyl)pyrimidine-2,4-diamine] | -0.09 ± 6.09% | 5.58 ± 4.14% | 85.9 ± 3.9% | 86.4 ± 4.85% | 38.4 ± 4.21 µM | – |
| CC1(C)c2ccccc2-c2cc(Nc3ccnc(NCCCN4CCOCC4)n3)ccc21 [JX3210, N^4-(9,9-dimethyl-9H-fluoren-3-yl)-N^2-(3-morpholinopropyl)pyrimidine-2,4-diamine] | 62 ± 4.2% | 42.7 ± 2.34% | 93.2 ± 3.42% | 98.69 ± 0.66% | 2.66 ± 0.51 µM | – |

The next lines start with results.

| inhibition at 1 µM (Kir4.1; [4]) | inhibition at 1 µM (Kir4.1; [5]) | inhibition at 10 µM (Kir4.1; [6]) | inhibition at 10 µM (Kir4.1; [7]) | Structure (SMILES) | IC50 [1, 8] | other results |
| --- | --- | --- | --- | --- | --- | --- |
| 28.8 ± 5.45% | 21.3 ± 8.61% | 89.2 ± 1.72% | 81 ± 2.36% | O=C1c2ccccc2-c2cc(Nc3ccnc(NCCCN4CCOCC4)n3)ccc21 [JX3211, 3-((2-((3-morpholinopropyl)amino)pyrimidin-4-yl)amino)-9H-fluoren-9-one] | 29.8 ± 0.5 µM | – |
| 55 ± 3.87% | 41.2 ± 4.03% | 79.1 ± 3.7% | 65.1 ± 4.67% | c1ccc2c3c([nH]c2c1)CCC(Nc1ccnc(NCCCN2CCOCC2)n1)C3 (stereo not drawn) [JX3213, N^2-(3-morpholinopropyl)-N^4-(2,3,4,9-tetrahydro-1H-carbazol-3-yl)pyrimidine-2,4-diamine] | 17.7 ± 3.05 µM | – |
| 60.4 ± 6.32% | 56.6 ± 3.9% | 93.6 ± 4.14% | 94.52 ± 0.7% | C1=Nc2ccccc2Oc2ccc(Nc3ccnc(NCCCN4CCOCC4)n3)cc21 [JX3214, N^4-(dibenzo[b,f][1,4]oxazepin-2-yl)-N^2-(3-morpholinopropyl)pyrimidine-2,4-diamine] | 4.64 ± 0.41 µM | – |
| 79.3 ± 3.86% | 71 ± 2.19% | 95.83 ± 0.42% | 89.8 ± 1.62% | c1ccc2c(c1)ccc1[nH]c3ccc(Nc4ccnc(NCCCN5CCOCC5)n4)cc3c12 [JX3215, N^4-(7H-benzo[c]carbazol-10-yl)-N^2-(3-morpholinopropyl)pyrimidine-2,4-diamine] | 6.72 ± 0.28 µM | inhibition at 0.5 µM (Kir4.1; [2]): 39.5 ± 5.16%; inhibition at 0.5 µM (Kir4.1; [3]): 30.3 ± 5.33% |
| 16.8 ± 8.93% | 9.55 ± 3.62% | 97.02 ± 0.67% | 92 ± 1.98% | Cc1cnc(NCCCN2CCOCC2)nc1Nc1ccc2oc3ccccc3c2c1 [JX3216, N^4-(dibenzo[b,d]furan-2-yl)-5-methyl-N^2-(3-morpholinopropyl)pyrimidine-2,4-diamine] | 17.9 ± 0.65 µM | – |
| – | – | 11.9 ± 10.1% | 7.77 ± 6.65% | Fc1cnc(NCCCN2CCOCC2)nc1Nc1ccc2oc3ccccc3c2c1 [JX3217, N^4-(dibenzo[b,d]furan-2-yl)-5-fluoro-N^2-(3-morpholinopropyl)pyrimidine-2,4-diamine] | > 50 µM | – |
| 1.15 ± 2.32% | 3.97 ± 2.03% | 86.8 ± 1.76% | 74.3 ± 4.51% | COc1cnc(NCCCN2CCOCC2)nc1Nc1ccc2oc3ccccc3c2c1 [JX3218, N^4-(dibenzo[b,d]furan-2-yl)-5-methoxy-N^2-(3-morpholinopropyl)pyrimidine-2,4-diamine] | 13.3 ± 0.3 µM | – |
| 86.1 ± 3.36% | 78.7 ± 8.16% | 97.44 ± 0.6% | 92.6 ± 5.66% | c1ccc2c(c1)oc1ccc(Nc3ccnc(NCCCN4CCOCC4)c3)cc12 [JX3219, N^4-(dibenzo[b,d]furan-2-yl)-N^2-(3-morpholinopropyl)pyridine-2,4-diamine] | 8.74 ± 0.36 µM | inhibition at 0.5 µM (Kir4.1; [2]): 49.6 ± 6.47%; inhibition at 0.5 µM (Kir4.1; [3]): 40.2 ± 4.35% |
| – | – | 2.61 ± 1.87% | 3.98 ± 1.6% | c1cc(NCCCN2CCOCC2)nc(Nc2ccc3oc4ccccc4c3c2)c1 [JX3220, N^2-(dibenzo[b,d]furan-2-yl)-N^6-(3-morpholinopropyl)pyridine-2,6-diamine] | 8.74 ± 0.36 µM | – |
| -2.41 ± 3.2% | -4.84 ± 3.28% | 96.6 ± 1.14% | 90.4 ± 5.72% | c1ccc2c(c1)oc1ccc(Nc3cncc(NCCCN4CCOCC4)c3)cc12 [JX3221, N^3-(dibenzo[b,d]furan-2-yl)-N^5-(3-morpholinopropyl)pyridine-3,5-diamine] | 21.2 ± 1.06 µM | – |

Source: paper PMC12903969, “Discovery of a Novel and Potent Kir4.1 Inhibitor as a Safe and Rapid‐Onset Antidepressant Agent in Mice” (Advanced Science, 2025)
